Reference: US11214803B2, “Modulators of YAP1 expression” (Ionis Pharmaceuticals, Inc., priority 2019, dated 2022)
Strand notation (5' to 3'): a small letter for the sugar, then the base; units joined by * are phosphorothioate-linked, units joined directly phosphodiester-linked; [ ] holds rarer units or linkages, { } end groups; capitals alone tell only the bases. k = constrained ethyl (cEt); [5mC] = 5-methylcytosine; d = 2'-deoxy (DNA)

System: Yap1 mRNA
Experiment: Antisense inhibition of human Yap1 in A-431 cells by cEt gapmers, single dose (Example 4, RTS4814)
Type: cell-based
Description: Modified oligonucleotides were designed to target a Yap1 nucleic acid and were tested for their effect on Yap1 mRNA level in vitro. The modified oligonucleotides were tested in a series of experiments that had similar culture conditions. Cultured A-431 cells at a density of 5,000 cells per well were treated using free uptake with 2,000 nM of modified oligonucleotide. After a treatment period of approximately 48 hours, RNA was isolated from the cells and Yap1 mRNA levels were measured by quantitative real-time RTPCR. Human primer probe set RTS4814 was used to measure mRNA levels. Yap1 mRNA levels were normalized to total RNA content, as measured by RIBOGREEN®. Results are presented in the tables below as percent control of the amount of Yap1 mRNA relative to untreated control cells (% UTC). The modified oligonucleotides with percent control values marked with an asterisk (*) target the amplicon region of the primer probe set. Additional assays may be used to measure the potency and efficacy of the modified oligonucleotides targeting the amplicon region.
The newly designed modified oligonucleotides in the Tables below were designed as 3-10-3 cEt gapmers. The gapmers are 16 nucleosides in length, wherein the central gap segment comprises of ten 2′-deoxynucleosides and is flanked by wing segments on the 5′ direction and the 3′ direction comprising three nucleosides each. Each nucleoside in the 5′ wing segment and each nucleoside in the 3′ wing segment has a cEt sugar modification. The internucleoside linkages throughout each gapmer are phosphorothioate (P═S) linkages. All cytosine residues throughout each gapmer are 5-methylcytosines.
“Start site” indicates the 5′-most nucleoside to which the gapmer is targeted in the human gene sequence. “Stop site” indicates the 3′-most nucleoside to which the gapmer is targeted human gene sequence. […] Activity of the modified oligonucleotide may be defined in a different experiment.

[1] = Table 17, A-431 cells, 5,000 cells per well, free uptake, 2,000 nM, approximately 48 hours, RTS4814, normalized to RIBOGREEN, Yap1 mRNA relative to untreated control cells
[2] = Table 15, A-431 cells, 5,000 cells per well, free uptake, 2,000 nM, approximately 48 hours, RTS4814, normalized to RIBOGREEN, Yap1 mRNA relative to untreated control, * = targets amplicon region of primer probe set
[3] = Table 16, A-431 cells, 5,000 cells per well, free uptake, 2,000 nM, approximately 48 hours, RTS4814, normalized to RIBOGREEN, Yap1 mRNA relative to untreated control cells
[4] = Yap1 mRNA remaining as percent of untreated control, 3-10-3 cEt gapmers, A-431 cells, Table 37
[5] = Table 14, A-431 cells, 5,000 cells per well, free uptake, 2,000 nM, approximately 48 hours, RTS4814, normalized to RIBOGREEN, Yap1 mRNA relative to untreated control, * = targets amplicon region of primer probe set
[6] = Yap1 mRNA remaining as percent of untreated control, 3-10-3 cEt gapmers, A-431 cells, Table 36

## 1076483 (antisense kA*k[5mC]*kG*dG*dG*dA*dA*dA*dT*d[5mC]*dA*dT*dA*kT*kA*kG) [Compound 1076483]
[1]
  YAP1 (% UTC): 5 % UTC

## 1075393 (k[5mC]*kT*kT*dA*dA*d[5mC]*d[5mC]*dT*dA*dT*dG*d[5mC]*d[5mC]*kA*kA*kA; antisense) [Compound 1075393]
[2]
  YAP1 (% UTC): 37 % UTC

## 1074563 (antisense kT*kG*kA*dA*dT*dT*d[5mC]*d[5mC]*dA*dA*dT*d[5mC]*dG*kA*kG*kA) [Compound 1074563]
[1]
  YAP1 (% UTC): 4 % UTC

## 1074914 (antisense kT*kT*kA*d[5mC]*dA*dT*d[5mC]*d[5mC]*d[5mC]*dG*dA*dG*dT*kG*kG*kG) [Compound 1074914]
[3]
  YAP1 (% UTC): 97 % UTC

## 1074627 (antisense k[5mC]*k[5mC]*kT*dG*dT*dT*dA*dT*dG*dA*dA*d[5mC]*d[5mC]*k[5mC]*kT*kT) [Compound 1074627]
[1]
  YAP1 (% UTC): 3 % UTC

## 1075394 (kT*k[5mC]*kT*dT*dA*dA*d[5mC]*d[5mC]*dT*dA*dT*dG*d[5mC]*k[5mC]*kA*kA; antisense) [Compound 1075394]
[3]
  YAP1 (% UTC): 27 % UTC

## 1075267 (antisense k[5mC]*kT*kA*dT*dT*dT*dA*dG*dA*dA*dT*dA*dA*kG*kT*kG) [Compound 1075267]
[1]
  YAP1 (% UTC): 83 % UTC

## 1075522 (k[5mC]*kA*kA*dA*dT*d[5mC]*dG*dA*dG*dG*d[5mC]*dG*dA*kA*kT*k[5mC]; antisense) [Compound 1075522]
[3]
  YAP1 (% UTC): 82 % UTC

## 1076354 (kG*kA*kT*dT*dA*dA*dA*d[5mC]*dA*dT*dT*d[5mC]*dG*kG*kA*kT; antisense) [Compound 1076354]
[3]
  YAP1 (% UTC): 13 % UTC

## 1074455 (k[5mC]*kA*kT*dT*dA*dT*dG*dT*dG*dA*d[5mC]*dT*dA*kA*kT*kG; antisense) [compound 1074455]
[4]
  YAP1 (% UTC): 67 % UTC

## 1074263 (antisense kA*kG*k[5mC]*d[5mC]*dG*dA*dG*dT*dT*d[5mC]*dA*dT*d[5mC]*kA*kT*kA) [compound 1074263]
[4]
  YAP1 (% UTC): 34 % UTC

## 1076002 (kA*kT*kT*dT*dA*dA*dT*dG*dG*d[5mC]*dT*dT*dG*k[5mC]*kA*kT; antisense) [Compound 1076002]
[3]
  YAP1 (% UTC): 21 % UTC

## 1075970 (kG*k[5mC]*kT*dT*dA*dA*dA*dA*dG*dG*dA*d[5mC]*dA*kG*kT*kA; antisense) [Compound 1075970]
[3]
  YAP1 (% UTC): 34 % UTC

## 1074240 (antisense k[5mC]*kT*kG*dG*d[5mC]*dA*dG*dA*dG*dG*dT*dA*d[5mC]*kA*kT*k[5mC]) [Compound 1074240]
[5]
  YAP1 (% UTC): 29 % UTC

## 1076546 (antisense k[5mC]*k[5mC]*k[5mC]*d[5mC]*dA*dA*d[5mC]*d[5mC]*dT*dG*dA*dG*dG*kA*kG*k[5mC]) [Compound 1076546]
[3]
  YAP1 (% UTC): 94 % UTC

## 1075778 (k[5mC]*kA*kT*dT*dT*dA*dT*dA*d[5mC]*d[5mC]*dA*dG*dG*k[5mC]*kA*k[5mC]; antisense) [Compound 1075778]
[3]
  YAP1 (% UTC): 3 % UTC

## 1074903 (antisense k[5mC]*k[5mC]*kT*dA*dT*dT*dA*dA*d[5mC]*dT*dT*dT*dT*kG*kG*kG) [compound 1074903]
[4]
  YAP1 (% UTC): 87 % UTC

## 1075426 (antisense kG*kT*kA*dT*dT*dA*dT*dT*dA*dA*dT*d[5mC]*d[5mC]*kT*kG*kT) [Compound 1075426]
[3]
  YAP1 (% UTC): 49 % UTC

## 1074646 (antisense kA*kA*kA*dT*dT*dG*dA*dA*dG*dG*dG*d[5mC]*d[5mC]*kA*kA*kA) [compound 1074646]
[6]
  YAP1 (% UTC): 39 % UTC

## 1074518 (kA*kA*kA*dT*dG*d[5mC]*dA*dT*dA*d[5mC]*dA*dA*dA*kG*k[5mC]*kG; antisense) [compound 1074518]
[6]
  YAP1 (% UTC): 13 % UTC

## 1076003 (kA*kA*kT*dT*dT*dA*dA*dT*dG*dG*d[5mC]*dT*dT*kG*k[5mC]*kA; antisense) [Compound 1076003]
[1]
  YAP1 (% UTC): 8 % UTC

## 1074275 (antisense k[5mC]*kA*kA*dG*dA*dG*dG*dT*dG*dG*dT*d[5mC]*dT*kT*kG*kT) [Compound 1074275]
[1]
  YAP1 (% UTC): 73 % UTC

## 1076128 (kT*k[5mC]*kT*dA*dA*dA*d[5mC]*d[5mC]*dT*dA*dA*dA*dG*kA*k[5mC]*kT; antisense) [Compound 1076128]
[5]
  YAP1 (% UTC): 118 % UTC

## 1075457 (antisense kA*kG*kT*dA*dA*dT*dA*dT*dG*dT*dA*d[5mC]*dA*kT*kG*kG) [Compound 1075457]
[2]
  YAP1 (% UTC): 5 % UTC

## 1074722 (antisense kA*kG*kG*dA*dA*dG*dA*dT*d[5mC]*dT*d[5mC]*d[5mC]*dA*kT*kA*kT) [Compound 1074722]
[3]
  YAP1 (% UTC): 57 % UTC

## 1075362 (k[5mC]*kA*kG*dG*dA*dA*dA*dA*dA*dT*d[5mC]*dT*dA*kG*kG*kT; antisense) [Compound 1075362]
[3]
  YAP1 (% UTC): 50 % UTC

## 1074848 (kG*kT*kT*dA*dT*dG*dA*dT*dA*dG*dG*d[5mC]*dA*k[5mC]*kA*k[5mC]; antisense) [Compound 1074848]
[5]
  YAP1 (% UTC): 11 % UTC

## 1074403 (antisense kG*k[5mC]*kT*dT*dA*dT*dG*dG*dA*dA*dA*dT*dT*kT*k[5mC]*k[5mC]) [Compound 1074403]
[1]
  YAP1 (% UTC): 9 % UTC

## 1074944 (antisense kA*kA*kA*dA*d[5mC]*d[5mC]*d[5mC]*dT*dT*dT*dG*dG*dT*k[5mC]*kT*k[5mC]) [Compound 1074944]
[5]
  YAP1 (% UTC): 89 % UTC

## 1076161 (kT*k[5mC]*kT*dT*dA*dT*dA*d[5mC]*dT*dA*dG*dT*dA*k[5mC]*kG*kG; antisense) [Compound 1076161]
[2]
  YAP1 (% UTC): 14 % UTC

## 1076323 (k[5mC]*kA*kA*dT*dT*dT*dA*d[5mC]*dA*dA*dG*dT*dG*kA*kG*k[5mC]; antisense) [Compound 1076323]
[1]
  YAP1 (% UTC): 5 % UTC

## 1075542 (kT*kG*kA*dG*dA*dA*dA*dG*dG*dT*dT*d[5mC]*d[5mC]*kT*kG*kA; antisense) [compound 1075542]
[6]
  YAP1 (% UTC): 66 % UTC

## 1074594 (antisense kT*kA*kG*dG*dA*dG*d[5mC]*dA*dA*dG*dT*d[5mC]*dT*kT*kG*kT) [Compound 1074594]
[3]
  YAP1 (% UTC): 6 % UTC

## 1076247 (kG*kA*k[5mC]*d[5mC]*dA*dA*dA*dA*d[5mC]*dA*dG*d[5mC]*dT*k[5mC]*kT*kT; antisense) [compound 1076247]
[4]
  YAP1 (% UTC): 11 % UTC

## 1075171 (antisense k[5mC]*k[5mC]*k[5mC]*d[5mC]*dA*dA*dT*dA*dT*dA*dA*dA*dG*kA*kA*k[5mC]) [Compound 1075171]
[1]
  YAP1 (% UTC): 88 % UTC

## 1075490 (antisense k[5mC]*kA*kT*dA*dT*dA*d[5mC]*dG*d[5mC]*dA*dA*dT*dT*kA*kG*kT) [Compound 1075490]
[3]
  YAP1 (% UTC): 27 % UTC

## 1076419 (kA*kT*kA*dT*dA*dA*dT*dA*dA*d[5mC]*d[5mC]*d[5mC]*dA*kT*kT*kG; antisense) [Compound 1076419]
[1]
  YAP1 (% UTC): 47 % UTC

## 1075392 (kG*kA*k[5mC]*dG*dG*dG*dT*dG*dA*dA*d[5mC]*d[5mC]*dT*kG*kT*kT; antisense) [Compound 1075392]
[5]
  YAP1 (% UTC): 95 % UTC

## 1076417 (k[5mC]*kT*kT*dT*dA*d[5mC]*dA*d[5mC]*d[5mC]*dG*dA*dA*dA*kT*kG*kA; antisense) [Compound 1076417]
[2]
  YAP1 (% UTC): 42 % UTC

## 1075585 (kA*kA*kA*dT*dA*dA*dT*dT*dG*dA*d[5mC]*d[5mC]*dT*kA*kG*k[5mC]; antisense) [Compound 1075585]
[2]
  YAP1 (% UTC): 52 % UTC

## 1074723 (antisense kG*kG*kT*dA*dA*dA*dG*dG*dA*dA*dG*dA*dT*k[5mC]*kT*k[5mC]) [Compound 1074723]
[1]
  YAP1 (% UTC): 6 % UTC

## 1075075 (antisense kA*kA*kT*dT*dT*dT*dA*dT*dA*dA*dG*d[5mC]*d[5mC]*k[5mC]*kA*k[5mC]) [Compound 1075075]
[1]
  YAP1 (% UTC): 9 % UTC

## 1076320 (k[5mC]*kA*kT*dT*dA*dA*d[5mC]*d[5mC]*dT*d[5mC]*dA*d[5mC]*d[5mC]*k[5mC]*kA*kT; antisense) [Compound 1076320]
[5]
  YAP1 (% UTC): 52 % UTC

## 1075939 (k[5mC]*kT*kT*dG*dA*dA*dT*dA*dT*dA*dT*dG*dG*kG*kT*kT; antisense) [Compound 1075939]
[1]
  YAP1 (% UTC): 6 % UTC

## 1076374 (antisense kA*kT*kA*dA*d[5mC]*dG*dG*dA*dT*dA*dT*dA*d[5mC]*kA*kA*kT) [compound 1076374]
[6]
  YAP1 (% UTC): 15 % UTC
